Source: patent publication US20080167314A1, “Condensed Imidazole Compound And Use Thereof” (priority 2004, published 2008)

| melting point [°C] | SMILES |
| --- | --- |
| 214 to 215 | Cc1cc(-c2nc3cccnn3c2-c2ccnc(NC(=O)C(C)C)c2)ccc1F [Example 42-2, N-{4-[2-(4-fluoro-3-methylphenyl)imidazo[1,2-b]pyridazin-3-yl]pyridin-2-yl}-2-methylpropanamide] |
| 218 to 220 | Cc1cc(-c2nc3cccnn3c2-c2ccnc(NC(=O)NC3CCC(O)CC3)c2)ccc1F (stereo not drawn) [Example 51-10, N-{4-[2-(4-fluoro-3-methylphenyl)imidazo[1,2-b]pyridazin-3-yl]pyridin-2-yl}-N′-(4-hydroxycyclohexyl)urea] |
| 224 to 225 | Cc1cc(-c2nc3cccnn3c2-c2ccnc(NC(=O)c3ccnc(Cl)c3)c2)ccc1F [Example 42-25, 2-chloro-N-{4-[2-(4-fluoro-3-methylphenyl)imidazo[1,2-b]pyridazin-3-yl]pyridin-2-yl}isonicotinamide] |
| 224 to 225 | COc1ccc(C(=O)Nc2cc(-c3c(-c4ccc(F)c(C)c4)nc4ccc(N(C)C)nn34)ccn2)cc1 [Example 45-2, N-{4-[6-(dimethylamino)-2-(4-fluoro-3-methylphenyl)imidazo[1,2-b]pyridazin-3-yl]pyridin-2-yl}-4-methoxybenzamide] |
| 181 to 182 | Cc1cc(-c2nc3cc(C(C)(C)C)c(Cl)nn3c2-c2ccnc(NC(=O)c3ccc(F)cc3)c2)ccc1F [Example 41-3, N-{4-[7-tert-butyl-6-chloro-2-(4-fluoro-3-methylphenyl)imidazo[1,2-b]pyridazin-3-yl]-2-pyridyl}-4-fluorobenzamide] |
| 220 to 221 | Cc1cc(-c2nc3cccnn3c2-c2ccnc(NC(=O)CC(F)(F)F)c2)ccc1F [Example 42-1, 3,3,3-trifluoro-N-{4-[2-(4-fluoro-3-methylphenyl)imidazo[1,2-b]pyridazin-3-yl]pyridin-2-yl}propanamide] |
| 181 to 182 | Cc1cccc(-c2nc3cccnn3c2-c2ccnc(NC(=O)c3ccncc3)n2)c1 [Example 44-3, N-{4-[2-(3-methylphenyl)imidazo[1,2-b]pyridazin-3-yl]pyrimidin-2-yl}isonicotinamide] |
| 219 to 220 | CSc1ccc(NC(=O)Nc2cc(-c3c(-c4ccc(F)c(C)c4)nc4cccnn34)ccn2)cc1 [Example 51-6, N-{4-[2-(4-fluoro-3-methylphenyl)imidazo[1,2-b]pyridazin-3-yl]pyridin-2-yl}-N′-[4-(methylthio)phenyl]urea] |
| 254 to 255 | Cc1cc(-c2nc3cccnn3c2-c2ccnc(NC(N)=O)c2)ccc1F [Example 51-9, N-{4-[2-(4-fluoro-3-methylphenyl)imidazo[1,2-b]pyridazin-3-yl]pyridin-2-yl}urea] |
| 222 to 223 | Cc1cc(-c2nc3cccnn3c2-c2ccnc(NC(=O)NC3CC3)c2)ccc1F [Example 51-1, N-cyclopropyl-N′-{4-[2-(4-fluoro-3-methylphenyl)imidazo[1,2-b]pyridazin-3-yl]pyridin-2-yl}urea] |
| 204 to 205 | Cc1cc(-c2nc3cccnn3c2-c2ccnc(NC(=O)NCCS(C)(=O)=O)c2)ccc1F [Example 51-5, N-{4-[2-(4-fluoro-3-methylphenyl)imidazo[1,2-b]pyridazin-3-yl]pyridin-2-yl}-N′-[2-(methylsulfonyl)ethyl]urea] |
| 235 to 236 | Cc1cc(-c2nc3c(C)cc(Cl)nn3c2-c2ccnc(NC(=O)c3ccc(F)cc3)c2)ccc1F [Example 41-2, N-{4-[6-chloro-2-(4-fluoro-3-methylphenyl)-8-methylimidazo[1,2-b]pyridazin-3-yl]-2-pyridyl}-4-fluorobenzamide] |
| 158 to 159 | CSCCC(=O)Nc1cc(-c2c(-c3ccc(F)c(C)c3)nc3cccnn23)ccn1 [Example 42-5, N-{4-[2-(4-fluoro-3-methylphenyl)imidazo[1,2-b]pyridazin-3-yl]pyridin-2-yl}-3-(methylthio)propanamide] |
| 233 to 234 | Cc1cc(-c2nc3cccnn3c2-c2ccnc(NC(=O)Nc3cccnc3)c2)ccc1F [Example 51-7, N-{4-[2-(4-fluoro-3-methylphenyl)imidazo[1,2-b]pyridazin-3-yl]pyridin-2-yl}-N′-(pyridin-3-yl)urea] |

Further lines, the compound ahead of its results:

| SMILES | melting point [°C] |
| --- | --- |
| CCNc1cc(-c2c(-c3cccc(C)c3)nc3cccnn23)ccn1 [Example Compound 6-26, N-ethyl-4-[2-(3-methylphenyl)imidazo[1,2-b]pyridazin-3-yl]pyridin-2-amine] | 151 to 153 |
| CCC(CC)Nc1cc(-c2c(-c3cccc(C)c3)nc3cccnn23)ccn1 [Example compound 6-20, N-(1-ethylpropyl)-4-[2-(3-methylphenyl)imidazo[1,2-b]pyridazin-3-yl]pyridin-2-amine] | 155 to 156 |
| COc1ccc2nc(-c3ccc(F)c(C)c3)c(-c3ccnc(NC(=O)NC(C)C)c3)n2n1 [Example 53, N-{4-[2-(4-Fluoro-3-methylphenyl)-6-methoxyimidazo[1,2-b]pyridazin-3-yl]pyridin-2-yl}-N′-isopropylurea] | 233 to 234 |
| Cc1cc(-c2nc3cccnn3c2-c2ccnc(NC(=O)c3ccc(Cl)cc3)c2)ccc1F [Example Compound 21-17, 4-chloro-N-{4-[2-(4-fluoro-3-methylphenyl)imidazo[1,2-b]pyridazin-3-yl]pyridin-2-yl}benzamide] | 207 to 209 |
| Cc1cccc(NC(=O)Nc2cc(-c3c(-c4cccc(C)c4)nc4cccnn34)ccn2)c1 [Example Compound 27-2, N-(3-methylphenyl)-N′-{4-[2-(3-methylphenyl)imidazo[1,2-b]pyridazin-3-yl]pyridin-2-yl}urea] | 202 to 203 |
| COc1ccc(C(=O)Nc2cc(-c3c(-c4cccc(C)c4)nc4ccc(Cl)nn34)ccn2)cc1 [Example 18, N-{4-[6-Chloro-2-(3-methylphenyl)imidazo[1,2-b]pyridazin-3-yl]pyridin-2-yl}-4-methoxybenzamide] | 204 to 205 |
| Cc1cccc(-c2nc3cccnn3c2-c2ccnc(NC(=O)NC3CCOCC3)c2)c1 [Example 52, N-{4-[2-(3-Methylphenyl)imidazo[1,2-b]pyridazin-3-yl]pyridin-2-yl}-N′-(tetrahydro-2H-pyran-4-yl)urea] | 222 |
| CCCCNc1cc(-c2c(-c3cccc(C)c3)nc3cccnn23)ccn1 [Example Compound 6-24, N-butyl-4-[2-(3-methylphenyl)imidazo[1,2-b]pyridazin-3-yl]pyridin-2-amine] | 128 to 129 |
| CCC(=O)Nc1cc(-c2c(-c3ccc(F)c(C)c3)nc3cccnn23)ccn1 [Example Compound 21-18, N-{4-[2-(4-fluoro-3-methylphenyl)imidazo[1,2-b]pyridazin-3-yl]pyridin-2-yl}propanamide] | 166 to 167 |
| CCN(CC)C(=O)Nc1cc(-c2c(-c3cccc(C)c3)nc3cccnn23)ccn1 [Example Compound 32-1, N,N-diethyl-N′-{4-[2-(3-methylphenyl)imidazo[1,2-b]pyridazin-3-yl]pyridin-2-yl}urea] | 166 to 167 |
| Cc1cccc(-c2nc3cccnn3c2-c2ccnc(NC(=O)C(C)O)c2)c1 (stereo not drawn) [Example 29, 2-Hydroxy-N-{4-[2-(3-methylphenyl)imidazo[1,2-b]pyridazin-3-yl]pyridin-2-yl}propanamide] | 223 to 224 |
| Cc1cc(-c2nc3cccnn3c2-c2ccnc(NC(=O)NC3CCCCC3)c2)ccc1F [Example Compound 28-6, N-cyclohexyl-N′-{4-[2-(4-fluoro-3-methylphenyl)imidazo[1,2-b]pyridazin-3-yl]pyridin-2-yl}urea] | 229 to 230 |
| Cc1cccc(-c2nc3cccnn3c2-c2ccnc(NC(=O)c3ccccc3F)c2)c1 [Example Compound 20-5, 2-fluoro-N-{4-[2-(3-methylphenyl)imidazo[1,2-b]pyridazin-3-yl]pyridin-2-yl}benzamide] | 180 to 181 |
| CCCNC(=O)Nc1cc(-c2c(-c3ccc(F)cc3)nc3cccnn23)ccn1 [Example Compound 28-9, N-{4-[2-(4-fluorophenyl)imidazo[1,2-b]pyridazin-3-yl]pyridin-2-yl}-N′-propylurea] | 219 to 220 |
| COc1ccnn2c(-c3ccnc(N)c3)c(-c3ccc(F)c(C)c3)nc12 [Example Compound 37-4, 4-[2-(4-fluoro-3-methylphenyl)-8-methoxyimidazo[1,2-b]pyridazin-3-yl]-2-pyridylamine] | 219 to 220 |
| Cc1cccc(-c2nc3cccnn3c2-c2ccnc(NCCN3CCCCC3)c2)c1 [Example Compound 6-14, 4-[2-(3-methylphenyl)imidazo[1,2-b]pyridazin-3-yl]-N-[2-(piperidin-1-yl)ethyl]pyridin-2-amine] | 143 to 144 |
| Cc1cccc(-c2nc3cccnn3c2-c2ccnc(NCC(C)(C)C)c2)c1 [Example compound 6-18, N-(2,2-dimethylpropyl)-4-[2-(3-methylphenyl)imidazo[1,2-b]pyridazin-3-yl]pyridin-2-amine] | 157 to 158 |
| Cc1cccc(-c2nc3cccnn3c2-c2ccnc(NCc3ccccc3)c2)c1 [Example Compound 6-23, N-benzyl-4-[2-(3-methylphenyl)imidazo[1,2-b]pyridazin-3-yl]pyridin-2-amine] | 193 to 194 |
| Cc1cccc(-c2nc3cccnn3c2-c2ccnc(NCC3CCCCC3)c2)c1 [Example 38, N-(Cyclohexylmethyl)-4-[2-(3-methylphenyl)imidazo[1,2-b]pyridazin-3-yl]pyridin-2-amine] | 128 to 130 |
| Cc1cccc(-c2nc3cccnn3c2-c2ccnc(NC(=O)c3ccc(Cl)cc3)c2)c1 [Example Compound 20-3, 4-chloro-N-{4-[2-(3-methylphenyl)imidazo[1,2-b]pyridazin-3-yl]pyridin-2-yl}benzamide] | 211 to 212 |
| Cc1cccc(-c2nc3cccnn3c2-c2ccnc(NC3CCCc4ccccc43)c2)c1 (stereo not drawn) [Example Compound 6-12, 4-[2-(3-methylphenyl)imidazo[1,2-b]pyridazin-3-yl]-N-(1,2,3,4-tetrahydtonaphthalen-1-yl)pyridin-2-amine] | 195 to 196 |
| CCN(CC)CCNc1cc(-c2c(-c3cccc(C)c3)nc3cccnn23)ccn1 [Example Compound 6-19, N,N-diethyl-N′-{4-[2-(3-methylphenyl)imidazo[1,2-b]pyridazin-3-yl]pyridin-2-yl}ethane-1,2-diamine] | 97 to 98 |
